The target in assay [1] is Human α2δ-1 Subunit of Cav2.2 Calcium Channel (Homo sapiens, UniProt P54289). The assay can be described thus: biochemical. It counts as binding.
The target of assay [2] is human μ-opioid receptor (Homo sapiens, UniProt P35372). The assay can be described thus: biochemical. Type of assay: binding.
Where [3] appears, read: read-out: Ki (nM) alpha2delta Hum.

The structures appear in SMILES notation. Like-named read-outs stand apart in the source and are kept apart here.

Sequence of Human α2δ-1 Subunit of Cav2.2 Calcium Channel (P54289 25-1103): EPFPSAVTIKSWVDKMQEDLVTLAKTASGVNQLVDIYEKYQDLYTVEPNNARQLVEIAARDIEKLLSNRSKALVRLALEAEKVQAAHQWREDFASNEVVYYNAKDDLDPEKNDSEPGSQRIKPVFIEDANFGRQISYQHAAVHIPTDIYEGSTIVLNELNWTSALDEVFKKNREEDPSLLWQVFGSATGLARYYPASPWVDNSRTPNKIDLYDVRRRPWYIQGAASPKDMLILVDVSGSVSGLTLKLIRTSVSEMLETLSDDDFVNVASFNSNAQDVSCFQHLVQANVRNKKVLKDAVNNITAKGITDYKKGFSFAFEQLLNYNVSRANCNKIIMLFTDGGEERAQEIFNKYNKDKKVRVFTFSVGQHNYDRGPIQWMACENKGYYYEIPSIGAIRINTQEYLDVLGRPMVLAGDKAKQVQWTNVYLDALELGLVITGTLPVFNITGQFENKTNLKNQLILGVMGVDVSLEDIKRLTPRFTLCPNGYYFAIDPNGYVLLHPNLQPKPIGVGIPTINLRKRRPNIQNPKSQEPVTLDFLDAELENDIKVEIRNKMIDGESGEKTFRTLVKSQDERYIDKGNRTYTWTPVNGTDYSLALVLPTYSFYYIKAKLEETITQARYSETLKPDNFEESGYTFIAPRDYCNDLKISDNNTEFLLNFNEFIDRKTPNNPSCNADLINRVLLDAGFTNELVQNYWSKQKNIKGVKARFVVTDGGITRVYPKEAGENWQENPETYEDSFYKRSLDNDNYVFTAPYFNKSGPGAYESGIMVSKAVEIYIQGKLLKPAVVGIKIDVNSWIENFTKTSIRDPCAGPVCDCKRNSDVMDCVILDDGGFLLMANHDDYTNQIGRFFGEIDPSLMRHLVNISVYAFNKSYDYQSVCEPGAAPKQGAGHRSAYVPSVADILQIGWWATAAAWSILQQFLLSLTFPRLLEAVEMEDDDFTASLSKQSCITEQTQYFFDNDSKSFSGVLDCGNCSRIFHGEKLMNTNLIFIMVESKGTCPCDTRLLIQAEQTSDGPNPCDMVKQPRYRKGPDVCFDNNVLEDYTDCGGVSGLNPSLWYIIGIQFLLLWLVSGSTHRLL
Sequence of human μ-opioid receptor (P35372 whole entry): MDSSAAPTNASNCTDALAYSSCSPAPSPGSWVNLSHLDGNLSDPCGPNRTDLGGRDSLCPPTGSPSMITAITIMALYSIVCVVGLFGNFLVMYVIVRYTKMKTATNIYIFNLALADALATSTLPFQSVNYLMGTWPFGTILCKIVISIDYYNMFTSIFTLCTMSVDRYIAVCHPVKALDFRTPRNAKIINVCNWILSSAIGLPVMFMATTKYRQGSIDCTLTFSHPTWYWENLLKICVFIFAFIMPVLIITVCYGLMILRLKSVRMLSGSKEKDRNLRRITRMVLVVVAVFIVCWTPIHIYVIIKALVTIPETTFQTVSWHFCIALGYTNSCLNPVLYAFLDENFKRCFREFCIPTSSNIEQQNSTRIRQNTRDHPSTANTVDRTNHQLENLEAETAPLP

As to `CNCCC(OCc1cccc(CN2CCC(c3ccccc3)(N(C)C)CC2)c1)c1ccccc1` (centres unmarked) [Example 25], the Ki in assay [1] was 500 to 3000 nM; in assay [2] it was under 0.1 µM. In the same order, the values of `CNCC[C@@H](OCc1cccc(CN2CCC(c3ccccc3)(N(C)C)CC2)c1)c1ccccc1` [Example 26, (R)-N,N-dimethyl-1-(3-((3-(methylamino)-1-phenylpropoxy)methyl)benzyl)-4-phenylpiperidin-4-amine] are 500 to 3000 nM and under 0.1 µM. In the same order, the values of `CNCC[C@H](OCc1cccc(CN2CCC(c3ccccc3)(N(C)C)CC2)c1)c1ccccc1` [Example 27, (S)-N,N-dimethyl-1-(3-((3-(methylamino)-1-phenylpropoxy)methyl)benzyl)-4-phenylpiperidin-4-amine] are over 3000 nM and under 0.1 µM.

In the case of `CNCCC(OCc1cccc(N2CCc3ccccc3C2=O)c1)c1cccs1` (centres unmarked) [Example 32, 2-(3-((3-(Methylamino)-1-(thiophen-2-yl)propoxy)methyl)phenyl)-3,4-dihydroisoquinolin-1(2H)-one], the Ki in assay [1] is 500 to 3000 nM; in assay [2] it was 0.1 to 0.5 µM. For the compound `CNCCC(OCc1cccc(N2CCNc3ccccc32)c1)c1ccccc1` (centres unmarked) [Example 47, 3-((3-(3,4-Dihydroquinoxalin-1(2H)-yl)benzyl)oxy)-N-methyl-3-phenylpropan-1-amine], the Ki in assay [1] (setting [3]) was over 3000 nM; in assay [2] (read-out: MU Ki), over 1 µM. `CNCCC(OCc1cccc(N2CCC(N(C)C)CC2)c1)c1ccccc1` (centres unmarked) [Example 48, N,N-dimethyl-1-(3-((3-(methylamino)-1-phenylpropoxy)methyl)phenyl)piperidin-4-amine]: the Ki in assay [1] (setting [3]) was 500 to 3000 nM. `CNCCC(OCc1ccc(N2CCC(c3ccccc3)(N(C)C)CC2)cc1)c1cccs1` (centres unmarked) [Example 49, N,N-dimethyl-1-(4-((3-(methylamino)-1-(thiophen-2-yl)propoxy)methyl)phenyl)-4-phenylpiperidin-4-amine]: the Ki in assay [1] (setting [3]) is over 3000 nM. Still for that read-out and setting: the result for `CNCC[C@H](Oc1ccc(CN2CCc3ccccc3C2=O)cc1)c1cccs1` [Example 50, (S)-(4-(3-(methylamino)-1-(thiophen-2-yl)propoxy)benzyl)-3,4-dihydroisoquinolin-1(2H)-one] reads 500 to 3000 nM. With `CNCCC(Oc1ccc(CN2CCC(c3ccccc3)(N(C)C)CC2)cc1)c1cccs1` (centres unmarked) [Example 51, N,N-dimethyl-1-(4-(3-(methylamino)-1-(thiophen-2-yl)propoxy)benzyl)-4-phenylpiperidin-4-amine], the Ki in assay [1] is over 3000 nM.

Consider `CNCCC(Oc1ccc(CN2CCN(C)CC2)cc1)c1cccs1` (centres unmarked) [Example 52, N-methyl-3-(4-((4-methylpiperazin-1-yl)methyl)phenoxy)-3-(thiophen-2-yl)propan-1-amine], for which, in assay [1] (setting [3]), the Ki was over 3000 nM. As for `CNCC[C@H](Oc1ccc(CN2CCn3cccc3C2=O)cc1)c1cccs1` [Example 53, (S)-2-(4-(3-(methylamino)-1-(thiophen-2-yl)propoxy)benzyl)-3,4-dihydropyrrolo[1,2-a]pyrazin-1(2H)-one], in assay [1] (setting [3]), the Ki was 500 to 3000 nM. Regarding `CNCCC(Oc1ccc(CN2CCCc3ccccc32)c(F)c1)c1cccs1` (centres unmarked) [Example 54, 3-(4-((3,4-Dihydroquinolin-1(2H)-yl)methyl)-3-fluorophenoxy)-N-methyl-3-(thiphen-2-yl)propan-1-amine], the Ki in assay [1] was over 3000 nM. Same read-out and setting: the result for `CNCCC(Oc1ccc(CN2CCc3ccccc3C2)c(F)c1)c1cccs1` (centres unmarked) [Example 55, 3-(4-((3,4-Dihydroisoquinolin-2(1H)-yl)methyl)-3-fluorophenoxy)-N-methyl-3-(thiophen-2-yl)propan-1-amine] reads over 3000 nM.

As to `CNCCC(Oc1ccc(C(=O)N2CCC(c3ccccc3)(N(C)C)CC2)cc1)c1cccs1` (centres unmarked) [Example 56, (4-(Dimethylamino)-4-phenylpiperidin-1-yl)(4-(3-(methylamino)-1-(thiophen-2-yl)propoxy)phenyl)methanone], the Ki in assay [1] (setting [3]) was over 3000 nM.

`CNCCC(Oc1ccc(CCN2CCC(c3ccccc3)(N(C)C)CC2)cc1)c1cccs1` (centres unmarked) [Example 57, N,N-dimethyl-1-(4-(3-(methylamino)-1-(thiophen-2-yl)propoxy)phenethyl)-4-phenylpiperidin-4-amine]: in assay [1], the Ki is over 3000 nM.

For the origin of these results see patent US20200270237A1 (priority 2017, published 2020).
